Results published in patent publication US10669261B2, “Heteroarylhydroxypyrimidinones as agonists of the APJ receptor” (BRISTOL-MYERS SQUIBB COMPANY, priority 2015, dated 2020).

molecular target: T1, human APJ receptor (Homo sapiens, UniProt P35414); experiment: Intracellular cAMP accumulation assay (APJ hcAMP, HTRF); type: cell-based; details: HEK293 cells stably expressing human APJ receptor; inhibition of forskolin-mediated cAMP production; stated at end of example; read-out: Human APJ cAMP Potency Range
T1 construct: expressed in transfected cells
T1 sequence (P35414 1-380): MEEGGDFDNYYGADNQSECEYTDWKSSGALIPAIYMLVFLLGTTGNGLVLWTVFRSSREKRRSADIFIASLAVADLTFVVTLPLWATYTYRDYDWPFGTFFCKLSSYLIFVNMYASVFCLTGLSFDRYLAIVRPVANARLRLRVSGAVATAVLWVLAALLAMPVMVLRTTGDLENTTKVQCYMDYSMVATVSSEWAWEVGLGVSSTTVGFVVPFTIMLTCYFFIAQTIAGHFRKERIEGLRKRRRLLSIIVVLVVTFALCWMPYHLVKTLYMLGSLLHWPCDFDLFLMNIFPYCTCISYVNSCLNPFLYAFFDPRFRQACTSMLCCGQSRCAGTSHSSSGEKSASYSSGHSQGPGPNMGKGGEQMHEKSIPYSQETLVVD
Experimental: Intracellular cAMP Accumulation Assay
HEK293 cells stably expressing human APJ receptor were used to assess the activity of compounds. Cultured cells were detached and resuspended in the cAMP Homogeneous Time-Resolved Fluorescence (HTRF) assay buffer (Cisbio cat; #62AM4PEJ). The assay was performed in 384-well assay plates (Perkin-Elmer; cat #6008289) according to assay protocol provided by the manufacturer. Serial dilutions of a compound together with assay buffer containing […] IBMX and 2 μM forskolin were added to each well containing 5,000 cells and incubated for 30 minutes at room temperature. Subsequently, cAMP D2 reagent was added in the lysis buffer followed by the EuK antibody (Cisbio; cat #62AM4PEJ) and incubated for 60 min. The fluorescence emission ratio was measured using fluorometer. The intracellular cAMP concentrations (compound-stimulated inhibition of forskolin-mediated cAMP production) were calculated by extrapolation from a standard curve using known cAMP concentrations. The EC50 values were obtained by fitting the data to a sigmoidal concentration-response curve with variable slope. The maximal achievable inhibition of forskolin-induced cAMP levels (Ymax) for each compound was expressed as relative percentage of inhibition attained using pyroglutamated apelin-13 ((Pyr1)apelin-13) peptide, which was set to 100%.
The examples disclosed below were tested in the APJ in vitro assays described above and were found having human APJ cyclic AMP (hcAMP) activity. The EC50 value of each compound is presented at the end of the example description.
The biological activity of the exemplified compounds of this invention determined by the assay described above is shown at the end of each example.

SMILES | EC50 [nM]
CCCCc1nc(=O)c(-c2nnc(Cc3noc4ccccc34)o2)c(O)n1-c1c(OC)cccc1OC [Example 1, 5-(5-(benzo[d]isoxazol-3-ylmethyl)-1,3,4-oxadiazol-2-yl)-2-butyl-1-(2,6-dimethoxyphenyl)-6-hydroxypyrimidin-4(1H)-one] | 0.01 to 10
CCCCc1nc(=O)c(-c2nnc(Cc3noc4ccccc34)o2)c(O)n1-c1c(OCC)cccc1OCC [Example 23, 5-(5-(Benzo[d]isoxazol-3-ylmethyl)-1,3,4-oxadiazol-2-yl)-2-butyl-1-(2,6-diethoxyphenyl)-6-hydroxypyrimidin-4(1H)-one] | 0.01 to 10

same assay, conditions: Table 1; HEK293 cells stably expressing human APJ receptor; read-out: hAPJ cAMP EC50 Potency range

SMILES | EC50 [nM]
CCCCc1nc(=O)c(-c2nnc(Cc3ccc(Cl)cc3)o2)c(O)n1-c1c(OC)cccc1OC [Example 2, 2-butyl-5-{5-[(4-chlorophenyl)methyl]-1,3,4-oxadiazol-2-yl}-1-(2,6-dimethoxyphenyl)-6-hydroxy-1,4-dihydropyrimidin-4-one] | 0.01 to 10
C=CCCc1nc(=O)c(-c2nnc(Cc3noc4ccccc34)o2)c(O)n1-c1c(OC)cccc1OC [Example 3, 5-[5-(1,2-benzoxazol-3-ylmethyl)-1,3,4-oxadiazol-2-yl]-2-(but-3-en-1-yl)-1-(2,6-dimethoxyphenyl)-6-hydroxy-1,4-dihydropyrimidin-4-one] | 0.01 to 10
CCCCc1nc(=O)c(-c2nnc(Cc3noc4ccccc34)o2)c(O)n1-c1c(CC)cccc1CC [Example 4, 5-[5-(1,2-benzoxazol-3-ylmethyl)-1,3,4-oxadiazol-2-yl]-2-butyl-1-(2,6-diethylphenyl)-6-hydroxy-1,4-dihydropyrimidin-4-one] | 0.01 to 10
CCCCc1nc(=O)c(-c2nnc(Cc3csc(C)n3)o2)c(O)n1-c1c(OC)cccc1OC [Example 5, 2-butyl-1-(2,6-dimethoxyphenyl)-6-hydroxy-5-{5-[(2-methyl-1,3-thiazol-4-yl)methyl]-1,3,4-oxadiazol-2-yl}-1,4-dihydropyrimidin-4-one] | 0.01 to 10
CCCCc1nc(=O)c(-c2nnc(Cn3ccccc3=O)o2)c(O)n1-c1c(OC)cccc1OC [Example 6, 2-butyl-1-(2,6-dimethoxyphenyl)-6-hydroxy-5-{5-[(2-oxo-1,2-dihydropyridin-1-yl)methyl]-1,3,4-oxadiazol-2-yl}-1,4-dihydropyrimidin-4-one] | 0.01 to 10
COc1cccc(OC)c1-n1c(CCC(C)C)nc(=O)c(-c2nnc(CN3CCCC3=O)o2)c1O [Example 7, 1-(2,6-dimethoxyphenyl)-6-hydroxy-2-(3-methylbutyl)-5-{5-[(2-oxopyrrolidin-1-yl)methyl]-1,3,4-oxadiazol-2-yl}-1,4-dihydropyrimidin-4-one] | 0.01 to 10
CCCCc1nc(=O)c(-c2nnc(CN3CCCC3=O)o2)c(O)n1-c1c(OC)cccc1OC [Example 8, 2-butyl-1-(2,6-dimethoxyphenyl)-6-hydroxy-5-{5-[(2-oxopyrrolidin-1-yl)methyl]-1,3,4-oxadiazol-2-yl}-1,4-dihydropyrimidin-4-one] | 0.01 to 10
CCCCc1nc(=O)c(-c2nnc(Cc3nc(-c4ccccn4)no3)o2)c(O)n1-c1c(OC)cccc1OC [Example 9, 2-butyl-1-(2,6-dimethoxyphenyl)-6-hydroxy-5-(5-{[3-(pyridin-2-yl)-1,2,4-oxadiazol-5-yl]methyl}-1,3,4-oxadiazol-2-yl)-1,4-dihydropyrimidin-4-one] | 0.01 to 10
COc1cccc(OC)c1-n1c(CCC(C)C)nc(=O)c(-c2nnc(Cn3ccccc3=O)o2)c1O [Example 10, 1-(2,6-dimethoxyphenyl)-6-hydroxy-2-(3-methylbutyl)-5-{5-[(2-oxo-1,2-dihydropyridin-1-yl)methyl]-1,3,4-oxadiazol-2-yl}-1,4-dihydropyrimidin-4-one] | 0.01 to 10
C=CCCc1nc(=O)c(-c2nnc(Cc3nc(-c4ccccn4)no3)o2)c(O)n1-c1c(OC)cccc1OC [Example 11, 2-(but-3-en-1-yl)-1-(2,6-dimethoxyphenyl)-6-hydroxy-5-(5-{[3-(pyridin-2-yl)-1,2,4-oxadiazol-5-yl]methyl}-1,3,4-oxadiazol-2-yl)-1,4-dihydropyrimidin-4-one] | 0.01 to 10
COc1cccc(OC)c1-n1c(CCCC(F)(F)F)nc(=O)c(-c2nnc(Cc3noc4ccccc34)o2)c1O [Example 12, 5-[5-(1,2-benzoxazol-3-ylmethyl)-1,3,4-oxadiazol-2-yl]-1-(2,6-dimethoxyphenyl)-6-hydroxy-2-(4,4,4-trifluorobutyl)-1,4-dihydropyrimidin-4-one] | 0.01 to 10
CCCCc1nc(=O)c(-c2nnc(Cc3noc4ccccc34)o2)c(O)n1-c1c(C)cccc1OC [Example 13, 5-[5-(1,2-benzoxazol-3-ylmethyl)-1,3,4-oxadiazol-2-yl]-2-butyl-6-hydroxy-1-(2-methoxy-6-methylphenyl)-1,4-dihydropyrimidin-4-one] | 0.01 to 10
C=CCCc1nc(=O)c(-c2nnc(Cc3ccc(Cl)cc3)o2)c(O)n1-c1c(OC)cccc1OC [Example 14, 2-(but-3-en-1-yl)-5-{5-[(4-chlorophenyl)methyl]-1,3,4-oxadiazol-2-yl}-1-(2,6-dimethoxyphenyl)-6-hydroxy-1,4-dihydropyrimidin-4-one] | 0.01 to 10
CCCCc1nc(=O)c(-c2nnc(Cc3noc4ccccc34)o2)c(O)n1-c1c(Br)cccc1Br [Example 15, 5-[5-(1,2-benzoxazol-3-ylmethyl)-1,3,4-oxadiazol-2-yl]-2-butyl-1-(2,6-dibromophenyl)-6-hydroxy-1,4-dihydropyrimidin-4-one] | 0.01 to 10
COc1cccc(OC)c1-n1c(CCC(C)C)nc(=O)c(-c2nnc(CN3CCOCC3=O)o2)c1O [Example 16, 4-({5-[1-(2,6-dimethoxyphenyl)-6-hydroxy-2-(3-methylbutyl)-4-oxo-1,4-dihydropyrimidin-5-yl]-1,3,4-oxadiazol-2-yl}methyl)morpholin-3-one] | 0.01 to 10
C=CCCc1nc(=O)c(-c2nnc(Cc3noc4ccccc34)o2)c(O)n1-c1c(C)cccc1OC [Example 17, 5-[5-(1,2-benzoxazol-3-ylmethyl)-1,3,4-oxadiazol-2-yl]-2-(but-3-en-1-yl)-6-hydroxy-1-(2-methoxy-6-methylphenyl)-1,4-dihydropyrimidin-4-one] | 0.01 to 10
CCCCc1nc(=O)c(-c2nnc(Cc3noc4ccccc34)o2)c(O)n1-c1c(OC)ncnc1OC [Example 18, 5-[5-(1,2-benzoxazol-3-ylmethyl)-1,3,4-oxadiazol-2-yl]-2-butyl-1-(4,6-dimethoxypyrimidin-5-yl)-6-hydroxy-1,4-dihydropyrimidin-4-one] | 0.01 to 10
CCCCc1nc(=O)c(-c2nnc(Cc3noc4ccccc34)o2)c(O)n1-c1c(Cl)cccc1Cl [Example 19, 5-[5-(1,2-benzoxazol-3-ylmethyl)-1,3,4-oxadiazol-2-yl]-2-butyl-1-(2,6-dichlorophenyl)-6-hydroxy-1,4-dihydropyrimidin-4-one] | 0.01 to 10
COc1cccc(OC)c1-n1c(CC2CC2)nc(=O)c(-c2nnc(Cc3noc4ccccc34)o2)c1O [Example 20, 5-[5-(1,2-benzoxazol-3-ylmethyl)-1,3,4-oxadiazol-2-yl]-2-(cyclopropylmethyl)-1-(2,6-dimethoxyphenyl)-6-hydroxy-1,4-dihydropyrimidin-4-one] | 0.01 to 10
COc1cccc(OC)c1-n1c(CC2CC2)nc(=O)c(-c2nnc(Cc3ccc(Cl)cc3)o2)c1O [Example 21, 5-{5-[(4-chlorophenyl)methyl]-1,3,4-oxadiazol-2-yl}-2-(cyclopropylmethyl)-1-(2,6-dimethoxyphenyl)-6-hydroxy-1,4-dihydropyrimidin-4-one] | 0.01 to 10
COc1cccc(OC)c1-n1c(CC2CC2)nc(=O)c(-c2nnc(Cc3nc(-c4ccccn4)no3)o2)c1O [Example 22, 2-(cyclopropylmethyl)-1-(2,6-dimethoxyphenyl)-6-hydroxy-5-(5-{[3-(pyridin-2-yl)-1,2,4-oxadiazol-5-yl]methyl}-1,3,4-oxadiazol-2-yl)-1,4-dihydropyrimidin-4-one] | 0.01 to 10

same assay, conditions: Table 2; HEK293 cells stably expressing human APJ receptor; read-out: hAPJ cAMP EC50 Potency range

SMILES | EC50 [nM]
CCCCc1nc(O)c(-c2nnc(Cc3csc(C)n3)o2)c(=O)n1C(C)c1cccnc1 (racemic) [Example 124, 2-butyl-6-hydroxy-5-{5-[(2-methyl-1,3-thiazol-4-yl)methyl]-1,3,4-oxadiazol-2-yl}-3-[1-(pyridin-3-yl)ethyl]-3,4-dihydropyrimidin-4-one] | 100 to 300
